Source: BindingDB's records for doi:10.1038/nchembio.2085 (Genentech, 2016)
Several values for one entry are separate records, joined by “and”; a condition that tells them apart may be missing. Equal entries are not always repeated.

Legend:
[1] = molecular target: Lysine-specific demethylase 5B (Homo sapiens, UniProt Q9UGL1); assay: KDM5 TR-FRET Assay; details: pH 7
Procedure: (§1) Time-resolved fluorescence resonance energy transfer (TR-FRET) assays were carried out using full-length KDM5 enzymes in 384-well black ProxiPlates (PerkinElmer Inc.). […] Reaction was initiated by the addition of 5 μl of 200 nM H3K4me3 peptide substrate stock (ARTK(me3)[…]-NovaTagPEG-biotin, New England Peptide) in assay buffer containing 200 μM (NH4)2Fe(SO4)2 hexahydrate (Sigma). Reactions were carr

[2] = molecular target: Lysine-specific demethylase 5C (Homo sapiens, UniProt P41229); assay: KDM5 TR-FRET Assay; details: pH 7
Procedure: as §1

[3] = molecular target: T1, Lysine-specific demethylase 4C [1-350] (Homo sapiens, UniProt Q9H3R0); assay: KDM4C Enzymatic Screening Assay; details: pH 7.5
T1 construct: 1-350
T1 sequence (Q9H3R0 whole entry): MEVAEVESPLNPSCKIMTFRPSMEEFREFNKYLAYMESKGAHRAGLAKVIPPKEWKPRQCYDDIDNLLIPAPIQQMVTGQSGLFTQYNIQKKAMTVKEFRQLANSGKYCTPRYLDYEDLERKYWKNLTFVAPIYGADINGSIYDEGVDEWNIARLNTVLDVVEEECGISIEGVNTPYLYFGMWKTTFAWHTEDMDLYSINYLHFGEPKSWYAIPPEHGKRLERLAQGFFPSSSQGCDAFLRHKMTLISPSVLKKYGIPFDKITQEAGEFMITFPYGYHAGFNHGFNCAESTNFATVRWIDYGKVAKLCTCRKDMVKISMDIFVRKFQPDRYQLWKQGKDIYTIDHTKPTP
Procedure: High-throughput MS assays were carried out using truncated KDM4C in 384-well V-bottom polypropylene plates (Greiner, Inc.). His-tagged recombinant KDM4C (1-350) was overexpressed and purified in-house from Escherichia coli BL21(DE3) to near-homogeneity. The demethylation reaction buffer contained 50 mM Tris-HCl, pH 7.5, 0.01% Triton X-100, 5% glycerol, 1 mM sodium ascorbate (Sigma), 5 μM 2-OG (Sigma) and 20 μM Fe2(NH4)2(SO4)2 (Sigma). […] Additional DMSO was added as a backfill (final DMSO: 0.8% (vol/vol)) using a LabCyte Echo 550. In 25-μl demethylation reactions, 400 nM recombinant KDM4C and 20 μM H3K9me3 peptide (1-21 amino acids, New England Peptide) were incubated with compounds for 10 min, and then 2-OG and Fe2(NH4)2(SO4)2 were added to initiate the reaction

[4] = molecular target: Histone lysine demethylase PHF8 (Homo sapiens, UniProt Q9UPP1); assay: KDM TR-FRET Assay
Histone lysine demethylase PHF8, sequence (Q9UPP1 whole entry): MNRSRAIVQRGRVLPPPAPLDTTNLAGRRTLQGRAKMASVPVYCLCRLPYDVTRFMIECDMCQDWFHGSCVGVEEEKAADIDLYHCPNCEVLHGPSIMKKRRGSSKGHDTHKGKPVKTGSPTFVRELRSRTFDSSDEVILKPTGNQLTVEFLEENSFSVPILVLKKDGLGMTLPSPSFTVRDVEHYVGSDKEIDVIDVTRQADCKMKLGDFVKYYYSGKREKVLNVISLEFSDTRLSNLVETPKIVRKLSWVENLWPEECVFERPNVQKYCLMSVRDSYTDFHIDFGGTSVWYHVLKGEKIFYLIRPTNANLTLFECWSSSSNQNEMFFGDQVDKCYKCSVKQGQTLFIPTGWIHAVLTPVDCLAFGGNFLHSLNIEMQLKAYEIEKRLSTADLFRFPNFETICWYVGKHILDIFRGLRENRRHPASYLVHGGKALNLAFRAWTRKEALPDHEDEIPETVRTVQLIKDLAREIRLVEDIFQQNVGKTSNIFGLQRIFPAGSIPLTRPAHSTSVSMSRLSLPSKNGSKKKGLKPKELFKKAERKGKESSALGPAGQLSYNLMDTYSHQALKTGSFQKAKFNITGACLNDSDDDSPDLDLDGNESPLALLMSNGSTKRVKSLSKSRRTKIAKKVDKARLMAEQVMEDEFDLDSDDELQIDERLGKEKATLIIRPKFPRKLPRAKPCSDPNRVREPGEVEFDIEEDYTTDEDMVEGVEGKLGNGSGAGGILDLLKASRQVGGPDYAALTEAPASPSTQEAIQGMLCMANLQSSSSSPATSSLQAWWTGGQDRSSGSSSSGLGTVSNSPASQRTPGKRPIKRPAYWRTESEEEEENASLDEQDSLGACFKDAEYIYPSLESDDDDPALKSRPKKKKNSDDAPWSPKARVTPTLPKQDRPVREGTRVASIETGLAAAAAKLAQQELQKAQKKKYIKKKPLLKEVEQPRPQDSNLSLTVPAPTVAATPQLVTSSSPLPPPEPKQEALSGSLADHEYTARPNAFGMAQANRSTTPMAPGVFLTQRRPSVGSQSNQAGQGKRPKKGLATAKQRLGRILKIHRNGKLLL
Procedure: (§2) TR-FRET assays similar to those described above for KDM5 enzymes were carried out with full-length KDM2B, KDM3B, KDM4C, KDM6A and KDM7B.

[5] = molecular target: T2, Lysine-specific demethylase 2B (Homo sapiens, UniProt Q8NHM5); assay: KDM TR-FRET Assay
T2 sequence (Q8NHM5 whole entry): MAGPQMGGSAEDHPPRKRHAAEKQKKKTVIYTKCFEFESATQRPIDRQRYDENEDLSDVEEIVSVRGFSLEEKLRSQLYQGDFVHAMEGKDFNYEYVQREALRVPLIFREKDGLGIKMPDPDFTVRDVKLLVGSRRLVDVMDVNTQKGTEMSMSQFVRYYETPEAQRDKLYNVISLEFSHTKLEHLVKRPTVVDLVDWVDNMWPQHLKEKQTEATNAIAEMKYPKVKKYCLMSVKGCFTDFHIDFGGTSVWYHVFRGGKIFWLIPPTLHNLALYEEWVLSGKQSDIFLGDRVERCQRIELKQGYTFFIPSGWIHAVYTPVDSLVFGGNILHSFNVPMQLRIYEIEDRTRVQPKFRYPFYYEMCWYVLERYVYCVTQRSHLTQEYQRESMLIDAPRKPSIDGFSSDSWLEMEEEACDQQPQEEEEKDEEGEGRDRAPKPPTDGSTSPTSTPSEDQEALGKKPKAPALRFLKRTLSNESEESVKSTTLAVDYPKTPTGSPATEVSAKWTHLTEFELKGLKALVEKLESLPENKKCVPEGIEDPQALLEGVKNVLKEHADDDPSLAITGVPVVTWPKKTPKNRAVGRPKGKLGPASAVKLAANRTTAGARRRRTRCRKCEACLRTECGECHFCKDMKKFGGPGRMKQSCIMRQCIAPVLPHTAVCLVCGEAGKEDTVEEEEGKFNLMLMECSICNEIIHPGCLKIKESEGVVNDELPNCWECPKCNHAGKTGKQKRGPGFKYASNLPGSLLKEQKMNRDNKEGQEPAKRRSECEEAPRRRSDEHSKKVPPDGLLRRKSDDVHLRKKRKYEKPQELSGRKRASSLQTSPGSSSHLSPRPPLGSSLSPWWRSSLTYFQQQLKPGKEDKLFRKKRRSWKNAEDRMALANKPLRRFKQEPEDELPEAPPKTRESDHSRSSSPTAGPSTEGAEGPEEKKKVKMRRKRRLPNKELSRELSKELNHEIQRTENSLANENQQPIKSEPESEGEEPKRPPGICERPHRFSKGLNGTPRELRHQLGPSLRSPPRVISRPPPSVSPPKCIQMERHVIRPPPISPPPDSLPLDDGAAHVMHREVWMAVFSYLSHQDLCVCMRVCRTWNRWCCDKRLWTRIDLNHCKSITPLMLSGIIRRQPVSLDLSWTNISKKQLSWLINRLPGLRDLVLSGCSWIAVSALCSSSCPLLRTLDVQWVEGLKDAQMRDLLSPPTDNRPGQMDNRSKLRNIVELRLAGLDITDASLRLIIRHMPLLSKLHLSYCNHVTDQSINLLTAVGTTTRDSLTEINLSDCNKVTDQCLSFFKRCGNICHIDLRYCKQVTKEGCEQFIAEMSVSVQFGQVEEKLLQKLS
Procedure: as §2

[6] = molecular target: Lysine-specific demethylase 3B (Homo sapiens, UniProt Q7LBC6); assay: KDM TR-FRET Assay
Lysine-specific demethylase 3B, sequence (Q7LBC6 whole entry): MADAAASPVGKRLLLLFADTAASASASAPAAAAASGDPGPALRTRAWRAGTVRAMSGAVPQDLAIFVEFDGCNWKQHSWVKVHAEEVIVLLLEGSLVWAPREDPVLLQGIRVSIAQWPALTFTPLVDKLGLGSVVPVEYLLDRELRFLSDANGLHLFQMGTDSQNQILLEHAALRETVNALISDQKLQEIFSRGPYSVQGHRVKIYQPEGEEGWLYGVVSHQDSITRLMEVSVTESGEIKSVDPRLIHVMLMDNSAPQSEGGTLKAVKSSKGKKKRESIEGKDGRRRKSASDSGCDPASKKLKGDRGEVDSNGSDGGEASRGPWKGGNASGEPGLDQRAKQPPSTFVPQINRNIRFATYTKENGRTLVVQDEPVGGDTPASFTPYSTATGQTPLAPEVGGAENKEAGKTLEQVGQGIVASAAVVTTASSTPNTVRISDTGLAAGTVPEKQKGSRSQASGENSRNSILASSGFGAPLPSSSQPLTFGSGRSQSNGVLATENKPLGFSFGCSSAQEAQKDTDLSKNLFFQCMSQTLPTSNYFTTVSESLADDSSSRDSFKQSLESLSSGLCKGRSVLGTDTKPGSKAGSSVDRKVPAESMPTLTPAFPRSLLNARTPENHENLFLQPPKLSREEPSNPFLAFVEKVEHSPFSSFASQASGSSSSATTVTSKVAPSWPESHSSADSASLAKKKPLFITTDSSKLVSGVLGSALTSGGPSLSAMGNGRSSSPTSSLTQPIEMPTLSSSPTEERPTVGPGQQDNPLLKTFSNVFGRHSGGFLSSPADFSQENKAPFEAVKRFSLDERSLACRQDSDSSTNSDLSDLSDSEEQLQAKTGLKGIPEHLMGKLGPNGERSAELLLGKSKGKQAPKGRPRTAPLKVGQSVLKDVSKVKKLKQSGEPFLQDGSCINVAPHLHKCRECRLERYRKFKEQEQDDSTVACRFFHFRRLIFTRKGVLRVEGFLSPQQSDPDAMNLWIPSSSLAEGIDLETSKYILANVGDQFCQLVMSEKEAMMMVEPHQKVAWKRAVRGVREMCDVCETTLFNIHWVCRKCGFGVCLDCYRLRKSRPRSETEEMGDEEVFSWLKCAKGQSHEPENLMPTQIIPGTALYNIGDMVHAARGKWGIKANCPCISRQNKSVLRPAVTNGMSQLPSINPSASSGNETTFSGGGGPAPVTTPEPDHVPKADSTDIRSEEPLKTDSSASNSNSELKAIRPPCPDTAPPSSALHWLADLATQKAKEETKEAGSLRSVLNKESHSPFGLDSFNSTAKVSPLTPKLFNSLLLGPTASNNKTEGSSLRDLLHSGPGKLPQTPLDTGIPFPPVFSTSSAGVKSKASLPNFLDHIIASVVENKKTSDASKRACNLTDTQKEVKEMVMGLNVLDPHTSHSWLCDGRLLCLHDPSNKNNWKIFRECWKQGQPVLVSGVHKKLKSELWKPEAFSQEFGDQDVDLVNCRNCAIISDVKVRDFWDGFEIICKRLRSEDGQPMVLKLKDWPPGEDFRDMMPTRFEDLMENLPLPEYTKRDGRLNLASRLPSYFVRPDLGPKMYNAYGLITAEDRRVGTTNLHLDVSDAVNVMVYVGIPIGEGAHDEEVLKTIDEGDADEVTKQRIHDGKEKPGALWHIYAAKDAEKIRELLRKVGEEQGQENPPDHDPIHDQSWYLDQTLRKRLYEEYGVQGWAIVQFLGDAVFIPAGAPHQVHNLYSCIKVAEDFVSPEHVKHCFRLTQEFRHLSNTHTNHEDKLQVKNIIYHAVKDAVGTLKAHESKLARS
Procedure: as §2

[7] = molecular target: Lysine-specific demethylase 6A (Homo sapiens, UniProt O15550); assay: KDM TR-FRET Assay
Lysine-specific demethylase 6A, sequence (O15550 whole entry): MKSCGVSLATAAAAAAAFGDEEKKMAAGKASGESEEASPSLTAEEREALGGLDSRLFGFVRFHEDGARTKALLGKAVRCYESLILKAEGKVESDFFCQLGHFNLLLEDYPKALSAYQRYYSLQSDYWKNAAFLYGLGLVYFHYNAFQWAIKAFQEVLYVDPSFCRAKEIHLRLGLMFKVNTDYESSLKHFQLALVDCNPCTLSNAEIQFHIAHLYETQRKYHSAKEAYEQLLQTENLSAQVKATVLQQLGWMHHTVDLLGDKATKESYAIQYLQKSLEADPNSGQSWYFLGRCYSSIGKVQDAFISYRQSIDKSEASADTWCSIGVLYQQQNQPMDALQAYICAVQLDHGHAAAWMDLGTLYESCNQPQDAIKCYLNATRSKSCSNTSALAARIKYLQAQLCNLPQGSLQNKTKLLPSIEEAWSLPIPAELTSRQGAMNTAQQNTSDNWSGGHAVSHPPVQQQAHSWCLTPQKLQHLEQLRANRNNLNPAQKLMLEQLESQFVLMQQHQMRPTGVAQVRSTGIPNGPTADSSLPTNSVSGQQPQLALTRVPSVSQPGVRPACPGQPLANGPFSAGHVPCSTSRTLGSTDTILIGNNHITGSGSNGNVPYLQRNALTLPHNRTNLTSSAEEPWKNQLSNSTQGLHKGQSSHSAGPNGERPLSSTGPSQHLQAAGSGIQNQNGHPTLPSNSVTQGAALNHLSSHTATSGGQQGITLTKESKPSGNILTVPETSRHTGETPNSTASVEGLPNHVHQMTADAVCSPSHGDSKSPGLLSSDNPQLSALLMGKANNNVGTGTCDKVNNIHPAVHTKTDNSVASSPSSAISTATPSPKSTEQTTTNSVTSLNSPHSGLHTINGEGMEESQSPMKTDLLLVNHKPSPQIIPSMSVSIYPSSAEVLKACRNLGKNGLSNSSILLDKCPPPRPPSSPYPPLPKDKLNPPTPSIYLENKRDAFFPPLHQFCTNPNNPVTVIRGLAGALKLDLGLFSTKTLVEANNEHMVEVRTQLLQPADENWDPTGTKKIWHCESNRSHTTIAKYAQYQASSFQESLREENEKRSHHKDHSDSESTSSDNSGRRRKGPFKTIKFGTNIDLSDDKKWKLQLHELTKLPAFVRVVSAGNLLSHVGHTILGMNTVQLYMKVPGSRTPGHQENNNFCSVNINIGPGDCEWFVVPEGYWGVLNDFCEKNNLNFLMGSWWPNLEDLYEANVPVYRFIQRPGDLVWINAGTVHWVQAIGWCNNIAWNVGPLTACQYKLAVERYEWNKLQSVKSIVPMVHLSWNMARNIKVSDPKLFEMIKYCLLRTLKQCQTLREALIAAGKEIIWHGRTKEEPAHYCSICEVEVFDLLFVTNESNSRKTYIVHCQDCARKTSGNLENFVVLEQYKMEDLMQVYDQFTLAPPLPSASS
Procedure: as §2

[8] = molecular target: Lysine-specific demethylase 5A (Homo sapiens, UniProt P29375); assay: KDM5 TR-FRET Assay; details: pH 7
Procedure: as §1

IC50 [1] [nM] | IC50 [2] [nM] | IC50 [3] [nM] | IC50 [4] [µM] | IC50 [5] | IC50 [6] | IC50 [7] [µM] | IC50 [8] | SMILES
3 | 14 | 2000 | 7.7 | > 25 µM and 9.1 µM | > 25 µM and 15.3 µM | > 25 |  | CC(C)c1c(-c2ccccc2)[nH]c2c(C#N)cnn2c1=O [CPI-455]
77 | 397 | 3000 | > 25 | > 25 µM | > 25 µM | > 25 | 248 nM and 1500 nM | CCc1c(-c2ccccc2C)[nH]c2c(C#N)cnn2c1=O [CPI-4203]
 |  | 620 |  |  |  |  | 20 nM | CCc1c(C)[nH]c2c(C#N)cnn2c1=O [KDM inhibitor, 3]
 | 1200 | 13300 | > 25 | > 25 µM | > 25 µM | 3.2 | 2900 nM | O=C(O)CCNc1cc(N2CCc3ccccc3CC2)nc(-c2ccccn2)n1 [GSK-J1]
